These results are taken from ChEMBL document CHEMBL5653631, “A Potent and Selective ULK1 Inhibitor Suppresses Autophagy and Sensitizes Cancer Cells to Nutrient Stress” (iScience, 2018).

In general, inhibition refers to how much of the control response was suppressed.

The target in experiment [1] is Cyclin-dependent kinase 2 (Homo sapiens) (UniProt P24941). Nature of the experiment: Inhibition of human recombinant CDK2 at 40 nM in presence of ATP by radiometric assay relative to control.
Experiment [2] addresses Dual specificity tyrosine-phosphorylation-regulated kinase 1A (Homo sapiens) (UniProt Q13627). Put plainly: Inhibition of human recombinant DYRK1A at 40 nM in presence of ATP by radiometric assay relative to control.
For experiment [3], the target named is Misshapen-like kinase 1 (Homo sapiens) (UniProt Q8N4C8). Nature of the experiment: Inhibition of human recombinant MINK at 40 nM in presence of ATP by radiometric assay relative to control.
Experiment [4] deals with Serine/threonine-protein kinase SIK1 (Homo sapiens) (UniProt P57059). Nature of the experiment: Inhibition of human recombinant SIK at 40 nM in presence of ATP by radiometric assay relative to control.
Serine/threonine-protein kinase SIK1 (Homo sapiens), sequence (P57059 whole entry): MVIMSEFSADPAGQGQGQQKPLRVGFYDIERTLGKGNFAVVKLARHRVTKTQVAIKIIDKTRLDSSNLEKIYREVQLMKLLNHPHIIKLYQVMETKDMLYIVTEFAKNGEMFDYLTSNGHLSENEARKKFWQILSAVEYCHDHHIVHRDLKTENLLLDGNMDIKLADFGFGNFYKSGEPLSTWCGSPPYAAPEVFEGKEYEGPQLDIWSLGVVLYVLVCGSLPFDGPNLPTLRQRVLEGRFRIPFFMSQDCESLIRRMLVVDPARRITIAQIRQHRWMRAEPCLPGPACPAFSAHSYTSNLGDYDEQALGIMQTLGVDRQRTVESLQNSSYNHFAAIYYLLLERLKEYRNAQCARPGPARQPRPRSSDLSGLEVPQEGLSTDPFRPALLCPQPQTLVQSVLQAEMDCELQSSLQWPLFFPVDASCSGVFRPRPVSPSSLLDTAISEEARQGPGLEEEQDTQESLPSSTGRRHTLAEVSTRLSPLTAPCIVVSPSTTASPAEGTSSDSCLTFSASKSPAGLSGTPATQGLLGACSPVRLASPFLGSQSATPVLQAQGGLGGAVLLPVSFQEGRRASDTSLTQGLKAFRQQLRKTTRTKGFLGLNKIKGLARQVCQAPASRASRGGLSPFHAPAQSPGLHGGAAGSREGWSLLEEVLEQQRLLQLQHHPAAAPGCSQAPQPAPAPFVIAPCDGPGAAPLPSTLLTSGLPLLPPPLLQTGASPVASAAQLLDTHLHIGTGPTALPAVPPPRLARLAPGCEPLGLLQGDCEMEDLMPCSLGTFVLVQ
The target in experiment [5] is NT-3 growth factor receptor (Homo sapiens) (UniProt Q16288). Put plainly: Inhibition of human recombinant TRKC at 40 nM in presence of ATP by radiometric assay relative to control.
Experiment [6] deals with Receptor tyrosine-protein kinase erbB-2 (Homo sapiens) (UniProt P04626). Nature of the experiment: Inhibition of human recombinant ErbB2 at 40 nM related to control ULK1.
Receptor tyrosine-protein kinase erbB-2 (Homo sapiens), sequence (P04626 whole entry): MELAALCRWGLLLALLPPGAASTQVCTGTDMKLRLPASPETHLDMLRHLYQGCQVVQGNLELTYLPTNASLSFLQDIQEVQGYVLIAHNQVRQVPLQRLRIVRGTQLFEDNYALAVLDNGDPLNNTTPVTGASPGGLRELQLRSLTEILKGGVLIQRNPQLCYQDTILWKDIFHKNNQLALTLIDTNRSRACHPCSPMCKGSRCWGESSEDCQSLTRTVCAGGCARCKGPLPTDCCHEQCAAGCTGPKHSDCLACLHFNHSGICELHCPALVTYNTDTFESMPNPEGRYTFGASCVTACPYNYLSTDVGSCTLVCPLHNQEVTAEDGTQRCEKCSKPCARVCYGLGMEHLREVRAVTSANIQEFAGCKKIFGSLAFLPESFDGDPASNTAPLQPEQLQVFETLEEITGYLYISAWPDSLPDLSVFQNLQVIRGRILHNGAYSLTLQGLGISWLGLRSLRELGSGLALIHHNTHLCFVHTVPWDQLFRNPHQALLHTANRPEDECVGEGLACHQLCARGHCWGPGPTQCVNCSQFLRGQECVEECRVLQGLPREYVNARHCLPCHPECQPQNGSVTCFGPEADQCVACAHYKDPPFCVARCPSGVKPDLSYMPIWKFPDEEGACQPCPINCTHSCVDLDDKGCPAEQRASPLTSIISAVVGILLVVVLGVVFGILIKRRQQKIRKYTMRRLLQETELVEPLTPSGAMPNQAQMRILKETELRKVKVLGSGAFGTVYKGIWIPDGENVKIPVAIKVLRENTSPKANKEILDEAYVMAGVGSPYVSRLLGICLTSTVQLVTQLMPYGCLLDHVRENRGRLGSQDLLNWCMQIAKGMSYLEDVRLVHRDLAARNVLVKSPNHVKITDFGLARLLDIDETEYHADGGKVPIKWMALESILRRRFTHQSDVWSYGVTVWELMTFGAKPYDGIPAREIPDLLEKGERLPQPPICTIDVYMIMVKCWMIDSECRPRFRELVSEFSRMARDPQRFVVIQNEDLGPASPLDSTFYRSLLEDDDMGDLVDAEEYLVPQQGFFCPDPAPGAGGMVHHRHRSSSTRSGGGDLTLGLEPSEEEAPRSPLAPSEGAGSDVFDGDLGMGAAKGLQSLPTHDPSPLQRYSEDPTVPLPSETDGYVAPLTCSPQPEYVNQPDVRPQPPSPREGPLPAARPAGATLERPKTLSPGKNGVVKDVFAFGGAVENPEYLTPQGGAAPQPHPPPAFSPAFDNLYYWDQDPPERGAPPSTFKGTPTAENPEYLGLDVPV
Experiment [7] deals with Leucine-rich repeat serine/threonine-protein kinase 2 (Homo sapiens) (UniProt Q5S007). Nature of the experiment: Inhibition of human recombinant LRRK2 at 40 nM related to control ULK1.
Leucine-rich repeat serine/threonine-protein kinase 2 (Homo sapiens), sequence (Q5S007 whole entry): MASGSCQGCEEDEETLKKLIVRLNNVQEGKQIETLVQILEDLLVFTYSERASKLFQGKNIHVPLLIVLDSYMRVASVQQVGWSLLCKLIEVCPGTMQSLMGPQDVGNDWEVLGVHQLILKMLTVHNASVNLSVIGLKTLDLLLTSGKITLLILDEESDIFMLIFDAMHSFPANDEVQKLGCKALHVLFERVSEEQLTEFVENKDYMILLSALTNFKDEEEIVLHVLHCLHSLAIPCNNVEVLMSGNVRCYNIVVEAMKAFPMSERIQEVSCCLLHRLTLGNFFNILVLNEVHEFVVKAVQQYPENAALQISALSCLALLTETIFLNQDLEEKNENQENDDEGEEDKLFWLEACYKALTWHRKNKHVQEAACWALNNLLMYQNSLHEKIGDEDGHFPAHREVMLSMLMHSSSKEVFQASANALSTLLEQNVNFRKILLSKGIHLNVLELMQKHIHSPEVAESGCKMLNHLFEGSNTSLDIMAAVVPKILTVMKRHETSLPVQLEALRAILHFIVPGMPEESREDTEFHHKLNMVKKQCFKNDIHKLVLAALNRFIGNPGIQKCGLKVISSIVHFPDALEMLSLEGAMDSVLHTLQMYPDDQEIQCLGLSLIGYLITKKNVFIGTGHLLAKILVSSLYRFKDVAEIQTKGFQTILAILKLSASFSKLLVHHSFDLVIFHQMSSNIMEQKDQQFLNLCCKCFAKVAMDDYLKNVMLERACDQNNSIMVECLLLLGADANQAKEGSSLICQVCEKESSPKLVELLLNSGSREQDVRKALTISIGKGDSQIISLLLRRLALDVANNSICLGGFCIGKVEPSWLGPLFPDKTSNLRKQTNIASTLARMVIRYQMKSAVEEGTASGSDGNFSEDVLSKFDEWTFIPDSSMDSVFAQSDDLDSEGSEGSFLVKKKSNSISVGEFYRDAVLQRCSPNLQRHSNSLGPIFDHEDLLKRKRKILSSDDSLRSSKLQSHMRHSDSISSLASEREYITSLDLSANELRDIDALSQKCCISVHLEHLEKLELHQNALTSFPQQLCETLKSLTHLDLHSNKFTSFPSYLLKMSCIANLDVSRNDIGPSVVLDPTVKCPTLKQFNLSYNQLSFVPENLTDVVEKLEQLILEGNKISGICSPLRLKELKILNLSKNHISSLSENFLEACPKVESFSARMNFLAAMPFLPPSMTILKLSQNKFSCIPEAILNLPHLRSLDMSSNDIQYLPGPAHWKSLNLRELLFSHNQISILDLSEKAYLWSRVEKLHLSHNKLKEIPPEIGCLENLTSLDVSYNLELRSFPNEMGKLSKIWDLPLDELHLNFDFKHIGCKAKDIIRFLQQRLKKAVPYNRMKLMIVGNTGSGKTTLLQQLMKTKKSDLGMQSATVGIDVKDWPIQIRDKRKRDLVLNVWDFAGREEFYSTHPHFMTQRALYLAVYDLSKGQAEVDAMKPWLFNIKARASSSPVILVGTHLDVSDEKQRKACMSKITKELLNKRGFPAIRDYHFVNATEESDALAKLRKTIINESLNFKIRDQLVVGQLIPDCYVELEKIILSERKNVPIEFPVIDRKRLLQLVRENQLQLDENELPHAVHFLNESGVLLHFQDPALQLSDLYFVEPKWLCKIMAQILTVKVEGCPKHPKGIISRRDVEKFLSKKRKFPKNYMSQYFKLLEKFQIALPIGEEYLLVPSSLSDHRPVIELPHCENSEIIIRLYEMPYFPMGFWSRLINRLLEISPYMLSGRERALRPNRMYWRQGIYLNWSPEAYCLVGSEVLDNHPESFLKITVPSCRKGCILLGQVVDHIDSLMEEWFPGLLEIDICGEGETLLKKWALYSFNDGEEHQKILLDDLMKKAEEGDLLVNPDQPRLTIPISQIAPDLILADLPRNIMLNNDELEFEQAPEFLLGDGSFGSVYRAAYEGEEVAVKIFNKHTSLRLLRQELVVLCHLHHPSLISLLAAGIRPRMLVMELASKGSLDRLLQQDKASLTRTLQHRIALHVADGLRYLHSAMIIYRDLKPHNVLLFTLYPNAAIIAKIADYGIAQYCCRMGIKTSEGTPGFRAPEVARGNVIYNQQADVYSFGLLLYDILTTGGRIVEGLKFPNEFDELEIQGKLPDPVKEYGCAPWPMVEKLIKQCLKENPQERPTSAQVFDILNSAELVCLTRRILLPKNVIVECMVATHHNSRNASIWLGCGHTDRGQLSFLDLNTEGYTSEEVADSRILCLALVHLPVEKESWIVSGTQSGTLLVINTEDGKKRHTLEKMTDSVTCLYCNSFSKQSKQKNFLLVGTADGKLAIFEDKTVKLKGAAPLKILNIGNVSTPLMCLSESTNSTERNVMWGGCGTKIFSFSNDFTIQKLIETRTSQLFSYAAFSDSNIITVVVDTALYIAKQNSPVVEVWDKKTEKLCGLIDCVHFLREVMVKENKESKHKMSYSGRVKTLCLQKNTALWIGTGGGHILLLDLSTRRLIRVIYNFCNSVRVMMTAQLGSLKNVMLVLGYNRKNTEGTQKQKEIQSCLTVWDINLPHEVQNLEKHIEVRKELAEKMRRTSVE
Experiment [8] addresses Platelet-derived growth factor receptor alpha (Homo sapiens) (UniProt P16234). Put plainly: Inhibition of human recombinant PDGFRa at 500 nM in presence of ATP by radiometric assay relative to control.
For experiment [9], the target named is T1, Myosin-IIIb (Homo sapiens) (UniProt Q8WXR4).
T1 sequence (whole entry): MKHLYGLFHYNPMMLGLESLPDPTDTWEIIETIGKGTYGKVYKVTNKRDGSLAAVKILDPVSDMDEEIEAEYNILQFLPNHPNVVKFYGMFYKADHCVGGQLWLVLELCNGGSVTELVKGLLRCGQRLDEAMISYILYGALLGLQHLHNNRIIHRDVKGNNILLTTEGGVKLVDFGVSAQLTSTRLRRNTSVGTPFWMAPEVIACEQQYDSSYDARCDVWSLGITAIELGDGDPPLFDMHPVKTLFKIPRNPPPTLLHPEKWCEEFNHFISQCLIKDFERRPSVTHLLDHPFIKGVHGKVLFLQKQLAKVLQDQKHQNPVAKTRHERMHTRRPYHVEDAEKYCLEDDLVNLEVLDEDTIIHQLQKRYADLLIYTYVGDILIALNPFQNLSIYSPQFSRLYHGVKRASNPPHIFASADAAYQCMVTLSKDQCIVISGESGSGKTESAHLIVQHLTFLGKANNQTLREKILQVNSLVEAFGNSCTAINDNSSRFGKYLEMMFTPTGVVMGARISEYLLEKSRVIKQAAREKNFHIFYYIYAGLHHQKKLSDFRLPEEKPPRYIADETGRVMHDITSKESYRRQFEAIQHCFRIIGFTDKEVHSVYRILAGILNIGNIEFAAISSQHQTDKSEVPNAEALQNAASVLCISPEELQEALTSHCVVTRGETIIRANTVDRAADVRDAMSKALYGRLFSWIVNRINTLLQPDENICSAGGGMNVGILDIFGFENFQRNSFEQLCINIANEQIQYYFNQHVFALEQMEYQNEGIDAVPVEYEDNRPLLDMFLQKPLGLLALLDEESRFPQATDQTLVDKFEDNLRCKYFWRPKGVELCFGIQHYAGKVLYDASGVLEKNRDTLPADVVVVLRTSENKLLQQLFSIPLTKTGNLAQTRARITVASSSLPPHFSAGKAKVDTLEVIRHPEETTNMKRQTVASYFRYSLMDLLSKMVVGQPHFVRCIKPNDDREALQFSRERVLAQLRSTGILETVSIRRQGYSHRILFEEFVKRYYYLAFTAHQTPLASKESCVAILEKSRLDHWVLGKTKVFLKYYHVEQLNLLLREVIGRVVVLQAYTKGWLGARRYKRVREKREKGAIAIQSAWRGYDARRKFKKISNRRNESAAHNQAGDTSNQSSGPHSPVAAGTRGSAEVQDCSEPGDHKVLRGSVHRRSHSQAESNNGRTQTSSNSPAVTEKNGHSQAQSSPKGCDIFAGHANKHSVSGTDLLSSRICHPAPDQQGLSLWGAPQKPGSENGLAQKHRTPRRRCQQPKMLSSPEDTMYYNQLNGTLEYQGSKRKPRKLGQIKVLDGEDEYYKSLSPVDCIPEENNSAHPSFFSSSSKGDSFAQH
Nature of the experiment: Inhibition of human recombinant MYO3B at 500 nM related to control ULK1.

The species named for a further experiment is Homo sapiens. Put plainly: Inhibition of human recombinant p70S6K at 15 nM in presence of ATP by radiometric assay relative to control.
The target in experiment [10] is Serine/threonine-protein kinase N1 (Homo sapiens) (UniProt Q16512). Nature of the experiment: Inhibition of human recombinant PKN1 at 15 nM in presence of ATP by radiometric assay relative to control.
Experiment [11] concerns the target Rho-associated protein kinase 1 (Homo sapiens) (UniProt Q13464). Nature of the experiment: Inhibition of human recombinant ROCK1 at 15 nM in presence of ATP by radiometric assay relative to control.
Experiment [12] deals with Cyclin-dependent kinase 2 (Homo sapiens) (UniProt P24941). Nature of the experiment: Inhibition of human recombinant CDK2 at 15 nM related to control ULK1.

On to `O=C(N[C@@H](C1CC1)C(F)(F)F)c1cc(-c2cnn3cc(-c4ccc(F)cc4)cnc23)cs1`, for which the inhibition in experiment [1] was 29%; in [2], 43%; in [3], 7%; in [4] it was 20%; in [5], 0%. Moreover, the fold change (FC) turned out to be 0 in [6] and 0.04 in experiment [7].

As for `CNC(=O)c1ccccc1Oc1nc(Nc2cc(OC)c(OC)c(OC)c2)ncc1Br`, the inhibition in experiment [8] was 0%. In experiment [9], the fold change (FC) worked out at 0.15.

Consider `CC(C)[C@H](NC(=O)c1cc(-c2cnn3cc(-c4ccc(OCCN5CCCCC5)cc4)cnc23)cs1)C(F)(F)F`, for which the inhibition in the experiment filed under Homo sapiens turned out to be 17%; in experiment [10], 0%; in experiment [11], 8%. For the same molecule, the fold change (FC) in experiment [12] is 0.01.
